Assays:
KM12 cells = assay: KM12 cell viability assay (CellTiter-Glo); type: cell-based; conditions: for IC50: Homo sapiens, 72 h, KM12 cells, 3 days, CellTiter-Glo; for viability of KM12 cells: 11-point 3-fold serial dilution, 3 days (FIG. 3)
Description: The kinase activity of TRK is known to play important roles in tumors expressing TRK-fusion proteins, as TRK kinase inhibitors compromise cell proliferation, survival, and induce marked clinical responses (Amatu et al., 2016; Drilon et al., 2018; Drilon et al., 2017; Khotskaya et al., 2017). KM12 cells seeded in 96-well plates were treated with heterobifunctional compounds following a 11-point 3-fold serial dilution. Three days after treatment, cell viability was determined using the CellTiter-Glo kit, and normalized to the mean values of 3 replicates of untreated cells. Dose-dependent response was analyzed following the least-squares non-linear regression method using the GraphPad Prism software. Each data point in the figure represents the mean values of three technical replicates ±standard deviation.
KM12 cells seeded in 96-well plates were treated with heterobifunctional compounds following a 11-point 3-fold serial dilution for 3 days.
KM12, TRKA G595R mutated KM12, HEL, and other cells were cultured at 37° C. with 5% CO2 in DMEM or RPMI 1640 Medium supplemented with 10% fetal bovine serum. Cells were authenticated using the short tandem repeat (STR) assays. Mycoplasma test results were negative.
Cells were seeded at a density of 5000 cells per well in 96-well assay plates and treated with test compounds following a 11-point 3-fold serial dilution. Three days later, cell viability was determined using the CellTiter-Glo assay kit (Promega) according to the manufacturer's instructions. The dose-response curves were determined and IC50 values were calculated using the GraphPad Prism software following a nonlinear regression (least squares fit) method.

TPM3-TRKA fusion protein = molecular target: T1, TPM3-TRKA fusion protein (Homo sapiens, UniProt P04629); assay: TPM3-TRKA degradation in KM12 cells (Western blot); type: cell-based; conditions: 16 hours, TRK protein, immunoblot; for inhibition at 0.01 µM: 10 nM; for inhibition at 0.1 µM: 100 nM
T1 construct: TPM3 (N-terminal part of tropomyosin alpha-3, natural fusion partner); endogenous in cells; host or cells: KM12 colon cancer cells; the other entry of the earlier key: TPM3 (P06753, Tropomyosin alpha-3 chain)
T1 sequence (P04629 with tags, fused parts or gaps): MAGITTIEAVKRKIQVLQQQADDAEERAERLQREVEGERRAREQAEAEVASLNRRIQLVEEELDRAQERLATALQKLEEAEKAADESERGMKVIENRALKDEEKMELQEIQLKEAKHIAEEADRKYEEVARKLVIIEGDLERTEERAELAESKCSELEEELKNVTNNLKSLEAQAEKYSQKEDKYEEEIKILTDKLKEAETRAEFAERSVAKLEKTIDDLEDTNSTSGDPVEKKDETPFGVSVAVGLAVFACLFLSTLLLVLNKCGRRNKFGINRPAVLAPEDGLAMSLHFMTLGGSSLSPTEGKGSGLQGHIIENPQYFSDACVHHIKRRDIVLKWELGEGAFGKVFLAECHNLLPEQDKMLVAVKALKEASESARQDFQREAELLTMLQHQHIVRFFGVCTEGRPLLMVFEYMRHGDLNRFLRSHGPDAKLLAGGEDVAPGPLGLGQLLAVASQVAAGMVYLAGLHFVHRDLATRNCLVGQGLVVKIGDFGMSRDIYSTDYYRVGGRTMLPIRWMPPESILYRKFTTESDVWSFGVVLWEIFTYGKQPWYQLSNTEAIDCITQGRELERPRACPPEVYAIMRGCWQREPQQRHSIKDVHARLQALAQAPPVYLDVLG
Description: Specific exemplary heterobifunctional compounds were characterized in KM12 cells. KM12 cells that express TPM3-TRKA fusion protein were treated with 10 nM or 100 nM heterobifunctional compounds disclosed herein or their corresponding warheads/inhibitors for 16 hours. Cells were collected, lysed and subject to immunoblotting using an antibody specific to TRK proteins.
KM12 cells were treated with heterobifunctional compounds at 10 nM or 100 nM for 16 hours.
Cultured cells were washed with cold PBS once and lysed in cold RIPA buffer supplemented with protease inhibitors and phosphatase inhibitors (Beyotime Biotechnology). The solutions were then incubated at 4° C. for 30 minutes with gentle agitation to fully lyse cells. Cell lysates were centrifuged at 13,000 rpm for 10 minutes at 4° C. and pellets were discarded. Total protein concentrations in the lysates were determined by BCA assays (Beyotime Biotechnology). Cell lysates were mixed with Laemmli loading buffer to 1× and heated at 99° C. for 5 min. Proteins were resolved on SDS-PAGE and visualized by chemiluminescence. Images were taken by a ChemiDoc MP Imaging system (Bio-Rad). Protein bands were quantitated using the software provided by Bio-Rad.
The percentage of TRK protein degradation of each compound at 10 nM and 100 nM was determined in KM12 cells as described in Methods. The percentage of degradation of each compound was indicated in the following categories: N/A: data not available; −: no degradation; +: degradation less than 50%; ++: degradation equal or greater than 50% but less than […]; +++: degradation equal or greater than 80%.

| SMILES | IC50 (KM12 cells) [nM] | viability of KM12 cells (KM12 cells) | inhibition at 0.01 µM (TPM3-TRKA fusion protein) [%] | inhibition at 0.1 µM (TPM3-TRKA fusion protein) [%] |
| --- | --- | --- | --- | --- |
| COCCN1C[C@@H](NC(=O)Nc2c(C)c(-c3cnc(N4CCN(C(=O)CCOCCOCCOCCOCCOCCNC(=O)C[C@H](NC(=O)[C@@H]5C[C@@H](O)CN5C(=O)[C@@H](NC(=O)C5(F)CC5)C(C)(C)C)c5ccc(-c6scnc6C)cc5)CC4)nc3)nn2-c2ccccc2)[C@H](c2cccc(F)c2)C1 [CPD-001, (2S,4R)-1-((S)-2-(1-fluorocyclopropane-1-carboxamido)-3,3-dimethylbutanoyl)-N-((S)-22-(4-(5-(5-(3-((3S,4R)-4-(3-fluorophenyl)-1-(2-methoxyethyl)pyrrolidin-3-yl)ureido)-4-methyl-1-phenyl-1H-pyrazol-3-yl)pyrimidin-2-yl)piperazin-1-yl)-1-(4-(4-methylthiazol-5-yl)phenyl)-3,22-dioxo-7,10,13,16,19-pentaoxa-4-azadocosyl)-4-hydroxypyrrolidine-2-carboxamide] | 518 |  |  |  |
| COCCN1C[C@@H](NC(=O)Nc2c(C)c(-c3cnc(N4CCN(C(=O)CCCNc5ccc6c(c5)C(=O)N(C5CCC(=O)NC5=O)C6=O)CC4)nc3)nn2-c2ccccc2)[C@H](c2cccc(F)c2)C1 (stereo partly drawn) [CPD-002, 1-(3-(2-(4-(4-((2-(2,6-dioxopiperidin-3-yl)-1,3-dioxoisoindolin-5-yl)amino)butanoyl)piperazin-1-yl)pyrimidin-5-yl)-4-methyl-1-phenyl-1H-pyrazol-5-yl)-3-((3S,4R)-4-(3-fluorophenyl)-1-(2-methoxyethyl)pyrrolidin-3-yl)urea] | 9.7 | inhibited the viability | > 80 | > 80 |
| COCCN1C[C@@H](NC(=O)Nc2c(C)c(-c3cnc(N4CCN(C(=O)CNc5cccc6c5C(=O)N(C5CCC(=O)NC5=O)C6=O)CC4)nc3)nn2-c2ccccc2)[C@H](c2cccc(F)c2)C1 (stereo partly drawn) [CPD-003, 1-(3-(2-(4-((2-(2,6-dioxopiperidin-3-yl)-1,3-dioxoisoindolin-4-yl)glycyl)piperazin-1-yl)pyrimidin-5-yl)-4-methyl-1-phenyl-1H-pyrazol-5-yl)-3-((3S,4R)-4-(3-fluorophenyl)-1-(2-methoxyethyl)pyrrolidin-3-yl)urea] | 5.1 | inhibited the viability | > 80 | > 80 |
| COCCN1C[C@@H](NC(=O)Nc2c(C)c(-c3cnc(N4CCN(C(=O)CCCNc5cccc6c5C(=O)N(C5CCC(=O)NC5=O)C6=O)CC4)nc3)nn2-c2ccccc2)[C@H](c2cccc(F)c2)C1 (stereo partly drawn) [CPD-004, 1-(3-(2-(4-(4-((2-(2,6-dioxopiperidin-3-yl)-1,3-dioxoisoindolin-4-yl)amino)butanoyl)piperazin-1-yl)pyrimidin-5-yl)-4-methyl-1-phenyl-1H-pyrazol-5-yl)-3-((3S,4R)-4-(3-fluorophenyl)-1-(2-methoxyethyl)pyrrolidin-3-yl)urea] | 25.8 |  | 50 to 800 | 50 to 800 |
| COCCN1C[C@@H](NC(=O)Nc2c(C)c(-c3cnc(N4CCN(C(=O)CCOCCOCCOCCNc5cccc6c5C(=O)N(C5CCC(=O)NC5=O)C6=O)CC4)nc3)nn2-c2ccccc2)[C@H](c2cccc(F)c2)C1 (stereo partly drawn) [CPD-005, 1-(3-(2-(4-(3-(2-(2-(2-((2-(2,6-dioxopiperidin-3-yl)-1,3-dioxoisoindolin-4-yl)amino)ethoxy)ethoxy)ethoxy)propanoyl)piperazin-1-yl)pyrimidin-5-yl)-4-methyl-1-phenyl-1H-pyrazol-5-yl)-3-((3S,4R)-4-(3-fluorophenyl)-1-(2-methoxyethyl)pyrrolidin-3-yl)urea] | 47.3 |  | > 80 | > 80 |
| COCCN1C[C@@H](NC(=O)Nc2c(C)c(-c3cnc(N4CCN(C(=O)CCCCCCCNc5ccc6c(c5)C(=O)N(C5CCC(=O)NC5=O)C6=O)CC4)nc3)nn2-c2ccccc2)[C@H](c2cccc(F)c2)C1 (stereo partly drawn) [CPD-006, 1-(3-(2-(4-(8-((2-(2,6-dioxopiperidin-3-yl)-1,3-dioxoisoindolin-5-yl)amino)octanoyl)piperazin-1-yl)pyrimidin-5-yl)-4-methyl-1-phenyl-1H-pyrazol-5-yl)-3-((3S,4R)-4-(3-fluorophenyl)-1-(2-methoxyethyl)pyrrolidin-3-yl)urea] | 10.3 |  | > 80 | > 80 |
| COCCN1C[C@@H](NC(=O)Nc2c(C)c(-c3cnc(N4CCN(C(=O)CCCCCNc5cccc6c5C(=O)N(C5CCC(=O)NC5=O)C6=O)CC4)nc3)nn2-c2ccccc2)[C@H](c2cccc(F)c2)C1 (stereo partly drawn) [CPD-007, 1-(3-(2-(4-(6-((2-(2,6-dioxopiperidin-3-yl)-1,3-dioxoisoindolin-4-yl)amino)hexanoyl)piperazin-1-yl)pyrimidin-5-yl)-4-methyl-1-phenyl-1H-pyrazol-5-yl)-3-((3S,4R)-4-(3-fluorophenyl)-1-(2-methoxyethyl)pyrrolidin-3-yl)urea] | 10.6 |  | > 80 | > 80 |
| COCCN1C[C@@H](NC(=O)Nc2c(C)c(-c3cnc(N4CCN(C(=O)CCCCCNc5ccc6c(c5)C(=O)N(C5CCC(=O)NC5=O)C6=O)CC4)nc3)nn2-c2ccccc2)[C@H](c2cccc(F)c2)C1 (stereo partly drawn) [CPD-008, 1-(3-(2-(4-(6-((2-(2,6-dioxopiperidin-3-yl)-1,3-dioxoisoindolin-5-yl)amino)hexanoyl)piperazin-1-yl)pyrimidin-5-yl)-4-methyl-1-phenyl-1H-pyrazol-5-yl)-3-((3S,4R)-4-(3-fluorophenyl)-1-(2-methoxyethyl)pyrrolidin-3-yl)urea] | 10.6 |  | > 80 | > 80 |
| COCCN1C[C@@H](NC(=O)Nc2c(C)c(-c3cnc(N4CCN(C(=O)CCCCCCCNc5cccc6c5C(=O)N(C5CCC(=O)NC5=O)C6=O)CC4)nc3)nn2-c2ccccc2)[C@H](c2cccc(F)c2)C1 (stereo partly drawn) [CPD-009, 1-(3-(2-(4-(8-((2-(2,6-dioxopiperidin-3-yl)-1,3-dioxoisoindolin-4-yl)amino)octanoyl)piperazin-1-yl)pyrimidin-5-yl)-4-methyl-1-phenyl-1H-pyrazol-5-yl)-3-((3S,4R)-4-(3-fluorophenyl)-1-(2-methoxyethyl)pyrrolidin-3-yl)urea] | 13.6 |  | > 80 | > 80 |
| COCCN1C[C@@H](NC(=O)Nc2c(C)c(-c3cnc(N4CCN(C(=O)CCOCCOCCOCCOCCNc5cccc6c5C(=O)N(C5CCC(=O)NC5=O)C6=O)CC4)nc3)nn2-c2ccccc2)[C@H](c2cccc(F)c2)C1 (stereo partly drawn) [CPD-010, 1-(3-(2-(4-(1-((2-(2,6-dioxopiperidin-3-yl)-1,3-dioxoisoindolin-4-yl)amino)-3,6,9,12-tetraoxapentadecan-15-oyl)piperazin-1-yl)pyrimidin-5-yl)-4-methyl-1-phenyl-1H-pyrazol-5-yl)-3-((3S,4R)-4-(3-fluorophenyl)-1-(2-methoxyethyl)pyrrolidin-3-yl)urea] | 86.1 |  | 50 to 800 | > 80 |

— patent publication US20240246955A1, “TROPOMYOSIN RECEPTOR KINASE (TRK) DEGRADATION COMPOUNDS AND METHODS OF USE” (CULLGEN (SHANGHAI), INC., priority 2021, published 2024)
